# Assay results from patent US6262073A, “Pharmaceutical methods of use of 5-substituted and 5,5 disubstituted-3,4-dihydroxy-2(5H)-furanones” (Oxis International Inc., priority 2000, dated 2001).
# What was measured:
# platelet aggregation = conditions: read-out: AA-induced platelet aggregation (AAIPA) IC50; cited from earlier work
# LTB4 production = conditions: stimulated macrophages; read-out: Inhibition of LTB4 production IC50; cited from earlier work
# PGE2 production = conditions: stimulated macrophages; read-out: Inhibition of PGE2 production IC50; cited from earlier work
# platelet function = conditions: cited from earlier work
# [1] = molecular target: T1, Cyclooxygenase-2 (prostaglandin H synthetase-2) from sheep placenta (Ovis aries, UniProt P79208); assay: Cyclooxygenase-2 screen (COX-2); assay type: biochemical; conditions: read-out: COX-2 percent inhibition
# T1 construct: cyclooxygenase-2 from sheep placenta; from tissue; host or cells: sheep placenta
# T1 sequence (P79208 17-603): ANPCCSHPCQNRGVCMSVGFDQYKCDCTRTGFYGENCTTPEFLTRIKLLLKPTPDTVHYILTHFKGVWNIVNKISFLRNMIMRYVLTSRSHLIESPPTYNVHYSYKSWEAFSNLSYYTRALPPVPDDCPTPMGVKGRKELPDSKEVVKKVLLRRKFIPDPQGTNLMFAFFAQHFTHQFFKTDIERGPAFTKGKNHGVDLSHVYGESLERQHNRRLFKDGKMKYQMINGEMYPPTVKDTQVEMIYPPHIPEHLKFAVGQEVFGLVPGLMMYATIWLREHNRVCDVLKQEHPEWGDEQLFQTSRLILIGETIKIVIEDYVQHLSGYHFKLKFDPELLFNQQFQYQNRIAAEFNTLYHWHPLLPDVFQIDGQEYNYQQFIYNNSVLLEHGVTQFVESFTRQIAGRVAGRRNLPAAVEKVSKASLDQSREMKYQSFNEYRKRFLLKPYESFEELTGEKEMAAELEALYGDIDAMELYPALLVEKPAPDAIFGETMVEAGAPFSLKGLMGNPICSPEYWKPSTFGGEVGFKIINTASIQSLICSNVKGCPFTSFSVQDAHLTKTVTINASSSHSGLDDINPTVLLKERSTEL
# [2] = molecular target: T2, Cyclooxygenase-1 (cyclooxygenase from ram seminal vesicles) (Ovis aries, UniProt P05979); assay: Cyclooxygenase-1 screen (COX-1); assay type: biochemical; conditions: 300 μM
# T2 construct: cyclooxygenase from ram seminal vesicles; from tissue; host or cells: ram seminal vesicles
# T2 sequence (P05979 25-600): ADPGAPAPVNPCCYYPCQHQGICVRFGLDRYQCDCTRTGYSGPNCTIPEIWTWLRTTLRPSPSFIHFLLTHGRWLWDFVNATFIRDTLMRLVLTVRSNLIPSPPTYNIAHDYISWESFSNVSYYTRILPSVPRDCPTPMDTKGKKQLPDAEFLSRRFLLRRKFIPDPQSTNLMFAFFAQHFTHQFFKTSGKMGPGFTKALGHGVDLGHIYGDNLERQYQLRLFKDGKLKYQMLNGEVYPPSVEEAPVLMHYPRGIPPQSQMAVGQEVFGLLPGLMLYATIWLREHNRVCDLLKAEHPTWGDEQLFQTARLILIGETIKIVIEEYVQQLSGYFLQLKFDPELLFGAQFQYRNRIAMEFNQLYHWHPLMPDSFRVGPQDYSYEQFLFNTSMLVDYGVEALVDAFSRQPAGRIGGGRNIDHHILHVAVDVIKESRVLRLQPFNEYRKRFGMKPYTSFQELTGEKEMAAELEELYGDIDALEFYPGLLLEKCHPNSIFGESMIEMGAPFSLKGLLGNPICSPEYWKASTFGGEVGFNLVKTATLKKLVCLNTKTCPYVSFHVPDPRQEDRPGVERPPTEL
# [3] = tested on: Lipid peroxidation (rat liver microsomes); assay: Lipid peroxidation screen (LPO), CCl4-induced, liver microsomes; assay type: biochemical; conditions: 300 μM
# [4] = molecular target: T3, 5-Lipoxygenase (crude enzyme preparation from rat basophilic leukemia cells, RBL-1) (Rattus norvegicus, UniProt P12527); assay: 5-Lipoxygenase screen (5-LO), 5-HETE by RIA; assay type: biochemical
# T3 construct: crude enzyme preparation from rat basophilic leukemia cells (RBL-1); endogenous in cells; host or cells: rat basophilic leukemia cells (RBL-1)
# T3 sequence (P12527 1-673): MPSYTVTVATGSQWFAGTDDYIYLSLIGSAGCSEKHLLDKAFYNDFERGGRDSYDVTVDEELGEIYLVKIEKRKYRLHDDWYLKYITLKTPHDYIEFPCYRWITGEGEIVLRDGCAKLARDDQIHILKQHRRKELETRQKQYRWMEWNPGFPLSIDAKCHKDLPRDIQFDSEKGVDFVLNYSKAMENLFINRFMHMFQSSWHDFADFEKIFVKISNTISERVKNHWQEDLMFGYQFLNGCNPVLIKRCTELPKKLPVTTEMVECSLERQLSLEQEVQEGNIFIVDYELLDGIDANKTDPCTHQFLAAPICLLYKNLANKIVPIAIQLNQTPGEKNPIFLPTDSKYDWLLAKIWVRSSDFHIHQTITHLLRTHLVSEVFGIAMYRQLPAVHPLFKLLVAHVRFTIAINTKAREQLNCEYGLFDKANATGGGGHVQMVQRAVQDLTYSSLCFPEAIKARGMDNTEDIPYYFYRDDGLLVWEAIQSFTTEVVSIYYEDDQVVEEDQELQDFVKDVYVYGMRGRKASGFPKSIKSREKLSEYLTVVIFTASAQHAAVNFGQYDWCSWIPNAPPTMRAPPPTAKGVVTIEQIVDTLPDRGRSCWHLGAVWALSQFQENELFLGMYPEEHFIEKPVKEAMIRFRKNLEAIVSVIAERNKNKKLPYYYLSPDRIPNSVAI
# NF-κB [5] = assay: NF-κB nuclear membrane translocation, EMSA, LPS-treated NR8383 cells; assay type: cell-based; conditions: Rattus norvegicus, LPS 1 μg/ml, NR8383 cells, 6 hours
# Protocol: Experiments measuring test agents effect on NF-κB nuclear membrane translocation were performed with NR8383 cells, which are transformed rat alveolar macrophages. […] In addition, some compounds were tested at doses of 10 and 30 μM. Untreated control cells and cells treated with LPS alone were tested in each experiment. Cells were harvested 6 hours after treatment. Nuclear proteins were extracted, frozen and quantified using the Bradford assay. Electrophoretic mobility shift assays (EMSA) were subsequently analyzed using a radiolabeled NF-κB probe. Nuclear proteins were reacted with the radiolabeled probe, run on a 5% polyacrylamide gel, and subjected to autoradiography. Specificity of protein binding for the NF-κB binding site was assayed by cold and nonspecific competition using the LPS treated sample in each experiment. All EMSA were duplicated at least once to verify results. Laser densitometry of NF-κB bands was done on autoradiographs to quantify NF-κB binding activity.
# NF-κB [6] = conditions: cited from earlier work
smiles,measurement,setting,value
"CCCCC/C=C\C/C=C\C/C=C\C/C=C\CC[C@@H]1OC(=O)C(O)=C1O [(S)-3,4-dihydroxy-5[(all Z)-3,6,9,12-octadecatraenyl]-2 (5H)-furanone]",IC50,platelet aggregation,< 10 µM
same,IC50,LTB4 production,20 µM
same,IC50,PGE2 production,20 µM
"O=C1OC(c2ccc(Cl)cc2)C(O)=C1O (stereo not drawn) [CHTA, 4-(4-chlorophenyl)-2-hydroxytetronic acid]",Inhibition of platelet function,platelet function,"inhibits platelet function by a similar mechanism, involving arachidonic acid release"
"O=C1OC(CCC#Cc2ccc3ccccc3c2)C(O)=C1O (stereo not drawn) [Example 32, 3,4-Dihydroxy-5-[4-(2-naphthyl)-3-butynyl]-2(5H)-furanone]",inhibition at 300 µM,[1],23%
same,COX-1 percent inhibition,[2],34%
same,LPO percent inhibition,[3],75%
same,inhibition at 30 µM,"[4]; 30 μM, read-out: 5-LO percent inhibition",98%
same,inhibition at 1 µM,"[4]; read-out: Percent inhibition of 5-LO, test conc. 1 μM (Table II)",66%
same,inhibition at 0.03 µM,NF-κB [5]; 30 nM,90%
"S=C(S)N1CCCC1 [Pyrrolidone dithiocarbamate (PDTC), Pyrrolidone dithiocarbamate]",Inhibition of H2O2 and extracellular cytokine-induced activation of NF-κB,NF-κB [6],inhibit both the H2 O2 and extracellular cytokine-induced activation of NF-κB in a concentration dependent manner
same,inhibition at 10 µM,"NF-κB [5]; 10,000 nM",50%
